According to patent publication US8802678B2, “Carbonylated (aza) cyclohexanes as dopamine D3 receptor ligands” (Bioprojet, priority 2006, dated 2014):

Question: With N#CCC(=O)N[C@H]1CC[C@H](CCN2CCN(c3cc(Cl)ccc3F)CC2)CC1 [Example 171, N-(4-{2-[4-(5-Chloro-2-fluorophenyl)piperazin-1-yl]ethyl}cyclohexyl)-2-cyanoacetamide] as the compound, how does the melting point read?
Answer: 200 °C

Question: For N#CCCCC(=O)N[C@H]1CC[C@H](CCN2CCN(c3cccc(C(F)(F)F)c3F)CC2)CC1 [Example 172, 4-Cyano-N-(4-{2-[4-(2-fluoro-3-trifluoromethylphenyl)piperazin-1-yl]ethyl}cyclohexyl)butanamide], which melting point is on record?
Answer: 158 to 162 °C

Question: For N#CCC(=O)N[C@H]1CC[C@H](CCN2CCN(c3csc4cc(C(F)(F)F)ccc34)CC2)CC1 [Example 173, 2-Cyano-N-(4-{2-[4-(6-trifluoromethylbenzo[b]thiophen-3-yl)piperazin-1-yl]ethyl}cyclohexyl)acetamide], which melting point is on record?
Answer: 216 °C

Question: With N#CCC(=O)N[C@H]1CC[C@H](CCN2CCN(c3cc(C(F)(F)F)ccc3F)CC2)CC1 [Example 174, 2-Cyano-N-(4-{2-[4-(2-fluoro-5-trifluoromethylphenyl)piperazin-1-yl]ethyl}cyclohexyl)acetamide] as the compound, how does the melting point read?
Answer: 197 °C

Question: With COc1ccc(Cl)cc1N1CCN(CC[C@H]2CC[C@H](NC(=O)CC#N)CC2)CC1 [Example 176, N-(4-{2-[4-(5-Chloro-2-methoxyphenyl)piperazin-1-yl]ethyl}cyclohexyl)-2-cyanoacetamide] as the compound, how does the melting point read?
Answer: 180 °C

Question: For CC(C)(C)c1nc(N2CCN(CC[C@H]3CC[C@H](NC(=O)CC#N)CC3)CC2)cc(C(F)(F)F)n1 [Example 177, N-(4-{2-[4-(2-tert-Butyl-6-trifluoromethylpyrimidin-4-yl)piperazin-1-yl]ethyl}cyclohexyl)-2-cyanoacetamide trans/cis 85/15], which melting point is on record?
Answer: 188 °C

Question: For Cc1c(N2CCN(CC[C@H]3CC[C@H](NC(=O)CC#N)CC3)CC2)cccc1C(F)(F)F [Example 178, 2-Cyano-N-(4-{2-[4-(2-methyl-3-trifluoromethylphenyl)piperazin-1-yl]ethyl}cyclohexyl)acetamide], which melting point is on record?
Answer: 181 °C

Question: With Cc1ccc(Cl)cc1N1CCN(CC[C@H]2CC[C@H](NC(=O)CC(F)(F)F)CC2)CC1 [Example 179, N-(4-{2-[4-(5-Chloro-2-methylphenyl)piperazin-1-yl]ethyl}cyclohexyl)-3,3,3-trifluoropropanamide] as the compound, how does the melting point read?
Answer: 177 to 178 °C

Question: Which melting point does the source give for COc1cc(OC)cc(N2CCN(CC[C@H]3CC[C@H](NC(=O)CC#N)CC3)CC2)c1 [Example 180, 2-Cyano-N-(4-{2-[4-(3,5-dimethoxyphenyl)piperazin-1-yl]ethyl}cyclohexyl)acetamide] here?
Answer: 181 to 183 °C

Question: Which melting point does the source give for N#CCC(=O)N[C@H]1CC[C@H](CCN2CCN(c3cc(F)cc(Cl)c3)CC2)CC1 [Example 181, N-(4-{2-[4-(3-Chloro-5-fluorophenyl)piperazin-1-yl]ethyl}cyclohexyl)-2-cyanoacetamide] here?
Answer: 181 to 183 °C

Question: With CSc1cccc(N2CCN(CC[C@H]3CC[C@H](NC(=O)CC#N)CC3)CC2)c1 [Example 182, 2-Cyano-N-(4-{2-[4-(3-methylsulfanylphenyl)piperazin-1-yl]ethyl}cyclohexyl)acetamide] as the compound, how does the melting point read?
Answer: 132 °C

Question: With N#CCC(=O)N[C@H]1CC[C@H](CCN2CCN(c3cccc4ccccc34)CC2)CC1 [Example 183, 2-Cyano-N-{4-[2-(4-naphthalen-1-ylpiperazin-1-yl)ethyl]cyclohexyl}acetamide] as the compound, how does the melting point read?
Answer: 174 °C

Question: For N#CCCCC(=O)N[C@H]1CC[C@H](CCN2CCN(c3cc(C(F)(F)F)cc(C(F)(F)F)c3)CC2)CC1 [Example 184, N-(4-{2-[4-(3,5-Bistrifluoromethylphenyl)piperazin-1-yl]ethyl}cyclohexyl)-4-cyanobutanamide], which melting point is on record?
Answer: 166 °C

Question: With N#CCC(=O)N[C@H]1CC[C@H](CCN2CCN(c3cccc(Cl)c3F)CC2)CC1 [Example 185, N-(4-{2-[4-(3-Chloro-2-fluorophenyl)piperazin-1-yl]ethyl}cyclohexyl)-2-cyanoacetamide] as the compound, how does the melting point read?
Answer: 183 °C

Question: For NC(=O)CCC(=O)N[C@H]1CC[C@H](CCN2CCN(c3ccccc3F)CC2)CC1 [Example 186, N-(4-{2-[4-(2-Fluorophenyl)piperazin-1-yl]ethyl}cyclohexyl)succinamide], which melting point is on record?
Answer: 255 °C

Question: For O=C(CC(F)(F)F)N[C@H]1CC[C@H](CCN2CCN(c3ccccc3)CC2)CC1 [Example 188, 3,3,3-Trifluoro-N-{4-[2-(4-phenylpiperazin-1-yl)ethyl]cyclohexyl}propanamide], which melting point is on record?
Answer: 185 °C

Question: Which melting point does the source give for N#CCC(=O)N[C@H]1CC[C@H](CCN2CCN(c3cc(C(F)(F)F)ccc3Cl)CC2)CC1 [Example 189, N-(4-{2-[4-(2-Chloro-5-trifluoromethylphenyl)piperazin-1-yl]ethyl}cyclohexyl)-2-cyanoacetamide] here?
Answer: 203 to 204 °C

Question: Which melting point does the source give for Cc1ccc(Cl)cc1N1CCN(CC[C@H]2CC[C@H](NC(=O)CCC(N)=O)CC2)CC1 [Example 190, N-(4-{2-[4-(5-Chloro-2-methylphenyl)piperazin-1-yl]ethyl}cyclohexyl)succinamide] here?
Answer: 237 to 240 °C

Question: For CC(=O)CCC(=O)N[C@H]1CC[C@H](CCN2CCN(c3cccc(C(F)(F)F)c3)CC2)CC1 [Example 191, 4-Oxo-pentanoic acid (4-{2-[4-(3-trifluoromethylphenyl)piperazin-1-yl]ethyl}cyclohexyl)amide], which melting point is on record?
Answer: 159 °C

Question: Which melting point does the source give for Cc1ccc(F)c(N2CCN(CC[C@H]3CC[C@H](NC(=O)CC#N)CC3)CC2)c1 [Example 192, 2-Cyano-N-(4-{2-[4-(2-fluoro-5-methylphenyl)piperazin-1-yl]ethyl}cyclohexyl)acetamide] here?
Answer: 178 °C

Question: With COc1ccc(Cl)c(N2CCN(CC[C@H]3CC[C@H](NC(=O)CC#N)CC3)CC2)c1 [Example 193, N-(4-{2-[4-(2-Chloro-5-methoxyphenyl)piperazin-1-yl]ethyl}cyclohexyl)-2-cyanoacetamide] as the compound, how does the melting point read?
Answer: 165 °C

Question: For CSc1ccccc1N1CCN(CC[C@H]2CC[C@H](NC(=O)CC#N)CC2)CC1 [Example 194, 2-Cyano-N-(4-{2-[4-(2-methylsulfanylphenyl)piperazin-1-yl]ethyl}cyclohexyl)acetamide], which melting point is on record?
Answer: 146 °C

Question: For COc1ccc(C)cc1N1CCN(CC[C@H]2CC[C@H](NC(=O)CC#N)CC2)CC1 [Example 195, 2-Cyano-N-(4-{2-[4-(2-methoxy-5-methylphenyl)piperazin-1-yl]ethyl}cyclohexyl)acetamide], which melting point is on record?
Answer: 178 °C

Question: Which melting point does the source give for Cc1ccc(F)cc1N1CCN(CC[C@H]2CC[C@H](NC(=O)CC#N)CC2)CC1 [Example 196, 2-Cyano-N-(4-{2-[4-(5-fluoro-2-methylphenyl)piperazin-1-yl]ethyl}cyclohexyl)acetamide] here?
Answer: 159 °C

Question: Which melting point does the source give for COc1ccc(C(C)(C)C)cc1N1CCN(CC[C@H]2CC[C@H](NC(=O)CC#N)CC2)CC1 [Example 197, N-(4-{2-[4-(5-tert-Butyl-2-methoxyphenyl)piperazin-1-yl]ethyl}cyclohexyl)-2-cyanoacetamide] here?
Answer: 163 °C

Question: Which melting point does the source give for COc1ccc(C)c(N2CCN(CC[C@H]3CC[C@H](NC(=O)CC#N)CC3)CC2)c1 [Example 198, 2-Cyano-N-(4-{2-[4-(5-methoxy-2-methylphenyl)piperazin-1-yl]ethyl}cyclohexyl)acetamide] here?
Answer: 178 to 180 °C

Question: With N#CCC(=O)N[C@H]1CC[C@H](CCN2CCC(c3cc(C(F)(F)F)cc(C(F)(F)F)c3)CC2)CC1 [Example 200, N-(4-{2-[4-(3,5-Bis-trifluoro-methylphenyl)piperidin-1-yl]ethyl}cyclohexyl)-2-cyanoacetamide] as the compound, how does the melting point read?
Answer: 164 °C

Question: With CC(=O)CCCC(=O)N[C@H]1CC[C@H](CCN2CCN(c3cccc(C(F)(F)F)c3)CC2)CC1 [Example 202, 5-Oxo-hexanoic acid (4-{2-[4-(3-trifluoromethylphenyl)piperazin-1-yl]ethyl}cyclohexyl)amide] as the compound, how does the melting point read?
Answer: 158 °C

Question: With N#CCCCC(=O)N[C@H]1CC[C@H](CCN2CCN(c3ccccc3F)CC2)CC1 [Example 204, 4-Cyano-N-(4-{2-[4-(2-fluorophenyl)piperazin-1-yl]ethyl}cyclohexyl)butanamide] as the compound, how does the melting point read?
Answer: 170 °C

Question: Which melting point does the source give for N#CCCCC(=O)N[C@H]1CC[C@H](CCN2CCN(c3cccc(Cl)c3F)CC2)CC1 [Example 205, N-(4-{2-[4-(3-Chloro-2-fluorophenyl)piperazin-1-yl]ethyl}cyclohexyl)-4-cyanobutanamide] here?
Answer: 186 °C

Question: Which melting point does the source give for N#CCCCC(=O)N[C@H]1CC[C@H](CCN2CCN(c3cccc(OC(F)(F)F)c3)CC2)CC1 [Example 206, 4-Cyano-N-(4-{2-[4-(3-trifluoromethoxyphenyl)piperazin-1-yl]ethyl}cyclohexyl)butanamide] here?
Answer: 133 to 134 °C

Question: For N#CCCCC(=O)N[C@H]1CC[C@H](CCN2CCN(c3cc(C(F)(F)F)ccc3F)CC2)CC1 [Example 207, 4-Cyano-N-(4-{2-[4-(2-fluoro-5-trifluoromethylphenyl)piperazin-1-yl]ethyl}cyclohexyl)butanamide], which melting point is on record?
Answer: 138 to 139 °C

Question: With N#CCC(=O)N[C@H]1CC[C@H](CCN2CCN(c3cccc(F)c3C#N)CC2)CC1 [Example 208] as the compound, how does the melting point read?
Answer: 187 to 189 °C

Question: For N#CCCCC(=O)N[C@H]1CC[C@H](CCN2CCN(c3cccc4c3CCCC4)CC2)CC1 [Example 209, 4-Cyano-N-(4-{2-[4-(5,6,7,8-tetrahydronaphthalen-1-yl)piperazin-1-yl]ethyl}cyclohexyl)butanamide], which melting point is on record?
Answer: 148 °C

Question: For N#CCCCC(=O)N[C@H]1CC[C@H](CCN2CCN(c3cccc(Cl)c3Cl)CC2)CC1 [Example 210, 4-Cyano-N-(4-{2-[4-(2,3-dichlorophenyl)piperazin-1-yl]ethyl}cyclohexyl)butanamide], which melting point is on record?
Answer: 192 °C

Question: For N#CCC(=O)N[C@H]1CC[C@H](CCN2CCN(c3ccc4c(c3)CCCC4)CC2)CC1 [Example 211, 2-Cyano-N-(4-{2-[4-(5,6,7,8-tetrahydronaphthalen-2-yl)piperazin-1-yl]ethyl}cyclohexyl)acetamide], which melting point is on record?
Answer: 200 °C

Question: For N#CCC(=O)N[C@H]1CC[C@H](CCN2CCN(c3ccc4c(c3)CCC4)CC2)CC1 [Example 212, 2-Cyano-N-{4-[2-(4-indan-5-ylpiperazin-1-yl)ethyl]cyclohexyl}acetamide], which melting point is on record?
Answer: 210 °C
